Here are results for 16 compounds from patent US6518290B1, “Substituted oxazoles and thiazoles derivatives as HPPAr alpha activators” (priority 1999, dated 2003).

Structures are written as SMILES.

Holding throughout (assay type): cell-based
In one assay the target is T1, human PPAR delta (Homo sapiens, UniProt Q03181).
T1 construct: expressed in transfected cells; host or cells: CV-1 cells
T1 sequence (Q03181 211-439 limits assumed): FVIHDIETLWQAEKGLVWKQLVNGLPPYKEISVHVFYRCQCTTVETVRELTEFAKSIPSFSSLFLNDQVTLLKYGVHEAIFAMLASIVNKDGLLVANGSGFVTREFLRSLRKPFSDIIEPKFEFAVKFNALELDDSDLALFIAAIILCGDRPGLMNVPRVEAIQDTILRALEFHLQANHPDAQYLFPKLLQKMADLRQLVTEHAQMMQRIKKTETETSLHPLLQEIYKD
Put plainly: PPAR transient transfection (transactivation) assay in CV-1 cells, PPAR delta. As to conditions: PPAR LBD-GAL4 chimera, SPAP reporter, 24 h with compound, read-out: human δEC50. The text has this: (§1) Compounds were screened for functional potency in transient transfection assays in CV-1 cells for their ability to activate the PPAR subtypes (transactivation assay). A previously established chimeric receptor system was utilized to allow comparison of the relative transcriptional activity of the receptor subtypes on the same target gene and to prevent endogenous receptor activation from complicating the interpretation of results. See, for example, Lehmann, J. M.; Moore, L. B.; Smith-Oliver, T. A.; Wilkison, W. O.; Willson, T. M.; Kliewer, S. A., An antidiabetic thiazolidinedione is a high affinity ligand for peroxisome proliferator-activated receptor γ (PPARγ), J. Biol. Chem., 1995, 270, 12953-6. The ligand binding domains for murine and human PPAR alpha, PPAR gamma, and PPAR delta were each fused to the yeast transcription factor GAL4 DNA binding domain. CV-1 cells were transiently transfected with expression vectors for the respective PPAR chimera along with a reporter construct containing five copies of the GAL4 DNA binding site driving expression of secreted placental alkaline phosphatase (SPAP) and β-galactosidase. After 16 h, the medium was exchanged to DME medium supplemented with 10% delipidated fetal calf serum and the test compound at the appropriate concentration. After an additional 24 h, cell extracts were prepared and assayed for alkaline phosphatase and β-galactosidase activity. Alkaline phosphatase activity was corrected for transfection efficiency using the β-galactosidase activity as an internal standard (see, for example, Kliewer, S. A., et. al. Cell 83, 813-819 (1995)). Rosiglitazone (BRL 49653) was used as a positive control in the hPPAR gamma assay. The positive control in the hPPAR alpha assays was 2-(2-methyl-3-[3-{3-(4-cyclohexylamino)-[6-(4-fluorophenylpiperazin-1-yl)][1,3,5]triazin-2-ylamino}propyl]phenylthio)-2-methylpropionic acid. The positive control for PPAR delta assays was 2-{2-methyl-4-[({4-methyl-2-{trifluoromethyl)phenyl]-1,3-thiazol-5-yl}methyl)sulfanyl]phenoxy}acetic acid.

The next assay concerns the target T2, human PPAR alpha (Homo sapiens, UniProt Q07869).
T2 construct: expressed in transfected cells; host or cells: CV-1 cells
T2 sequence (Q07869 239-466 limits assumed): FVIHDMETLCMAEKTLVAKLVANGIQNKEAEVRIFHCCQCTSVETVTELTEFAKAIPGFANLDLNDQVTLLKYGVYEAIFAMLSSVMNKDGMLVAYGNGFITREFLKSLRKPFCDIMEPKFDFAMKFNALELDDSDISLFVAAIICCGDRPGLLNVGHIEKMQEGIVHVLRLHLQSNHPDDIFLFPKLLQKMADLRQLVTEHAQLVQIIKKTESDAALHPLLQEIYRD
Put plainly: PPAR transient transfection (transactivation) assay in CV-1 cells, hPPAR alpha. As to conditions: PPAR LBD-GAL4 chimera, SPAP reporter, 24 h with compound, read-out: human αEC50.
Text: as §1, with “Alkaline phosphatase activity was corrected for transfection efficiency using the β-galactosidase activity as an internal standard (see, for example, Kliewer, S. A., et. al. Cell 83, 813-819 (1995)).” left out

The target in a further assay is T3, human PPAR gamma (Homo sapiens, UniProt P37231).
T3 construct: expressed in transfected cells; host or cells: CV-1 cells
T3 sequence (P37231 238-503 limits assumed): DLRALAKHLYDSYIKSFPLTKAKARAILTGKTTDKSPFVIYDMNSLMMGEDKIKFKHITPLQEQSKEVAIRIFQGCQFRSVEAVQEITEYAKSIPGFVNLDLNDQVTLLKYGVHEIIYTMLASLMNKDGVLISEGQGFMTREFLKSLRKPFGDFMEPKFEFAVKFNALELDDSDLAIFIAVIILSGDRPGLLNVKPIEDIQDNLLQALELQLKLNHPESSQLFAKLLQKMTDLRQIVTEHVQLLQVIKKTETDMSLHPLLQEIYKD
As to the kind of experiment: PPAR transient transfection (transactivation) assay in CV-1 cells, hPPAR gamma. Conditions: PPAR LBD-GAL4 chimera, SPAP reporter, 24 h with compound, read-out: human γEC50.
Text: as §1

Consider `CCOC(=O)C(C)(C)Oc1ccc(CNC(=O)c2sc(-c3ccc(C(F)(F)F)cc3)nc2C)cc1` [Example 1, 2-Methyl-2-[4-{[(4-methyl-2-[4-trifluoromethylphenyl]thiazol-5-ylcarbonyl)amino]methyl}phenoxy]propionic Acid Ethyl Ester], for which the EC50 at human PPAR delta is ≥ 10000 nM; on human PPAR alpha it was 17 nM; on human PPAR gamma, ≥ 10000 nM.
Take `Cc1nc(-c2ccc(C(F)(F)F)cc2)sc1C(=O)NCc1ccc(OC(C)(C)C(=O)O)cc1` [Example 2, 2-Methyl-2-[4-{[(4-methyl-2-[4-trifluoromethylphenyl]-thiazol-5-ylcarbonyl)amino]methyl}phenoxy]propionic Acid]: the values for the EC50 at human PPAR delta and at human PPAR gamma were 2950 nM and ≥ 10000 nM, respectively.
As for `Cc1nc(-c2ccc(C(F)(F)F)cc2)sc1C(=O)N(C)Cc1ccc(OC(C)(C)C(=O)O)cc1` [Example 6, N-Methyl-2-methyl-2-[4-{[(4-methyl-2-[4-trifluoromethylphenyl]-thiazol-5-ylcarbonyl)amino]methyl}phenoxy]propionic Acid], the values for the EC50 on human PPAR delta, on human PPAR alpha and at human PPAR gamma were ≥ 10000 nM, 230 nM and ≥ 10000 nM, respectively.
As to `Cc1nc(-c2ccc(C(F)(F)F)cc2)sc1C(=O)NCCc1ccc(OC(C)(C)C(=O)O)cc1` [Example 10, 2-Methyl-2-[4-{[(4-methyl-2-[4-trifluoromethylphenyl]-thiazol-5-ylcarbonyl)amino]ethyl}phenoxy]propionic Acid], the EC50 on human PPAR delta is ≥ 10000 nM; at human PPAR alpha it was 108 nM; on human PPAR gamma, ≥ 10000 nM.
On to `Cc1nc(-c2ccc(C(C)(C)C)cc2)sc1C(=O)NCc1ccc(OC(C)(C)C(=O)O)cc1` [Example 13, 2-Methyl-2-[4-{[(4-methyl-2-[4-tertbutylphenyl]-thiazol-5-ylcarbonyl)amino]methyl}phenoxy]propionic Acid], for which the EC50 at human PPAR delta was ≥ 10000 nM; at human PPAR alpha, 5 nM; at human PPAR gamma it was 850 nM.
The matching figures for `Cc1nc(-c2ccc(C(C)C)cc2)sc1C(=O)NCc1ccc(OC(C)(C)C(=O)O)cc1` [Example 15, 2-Methyl-2-[4-{[(4-methyl-2-[4-isopropylphenyl]-thiazol-5-ylcarbonyl)amino]methyl}phenoxy]propionic Acid]: 4370 nM, 1 nM and 2640 nM.
Turning to `Cc1nc(-c2ccc([N+](=O)[O-])cc2)sc1C(=O)NCc1ccc(OC(C)(C)C(=O)O)cc1` [Example 17, 2-Methyl-2-[4-{[(4-methyl-2-[4-nitrophenyl]-thiazol-5-ylcarbonyl)amino]methyl}phenoxy]propionic Acid], the EC50 at human PPAR delta is ≥ 10000 nM; at human PPAR alpha it was 27 nM; on human PPAR gamma, ≥ 10000 nM.
Regarding `Cc1nc(-c2ccc(Cl)c(Cl)c2)sc1C(=O)NCc1ccc(OC(C)(C)C(=O)O)cc1` [Example 21, 2-Methyl-2-[4-{[(4-methyl-2-[3,4-dichlorophenyl]-thiazol-5-ylcarbonyl)amino]methyl}phenoxy]propionic Acid], the EC50 at human PPAR delta is ≥ 10000 nM; on human PPAR alpha it was 28 nM; at human PPAR gamma, ≥ 10000 nM.
Regarding `Cc1nc(-c2ccc(C(F)(F)F)c(F)c2)sc1C(=O)NCc1ccc(OC(C)(C)C(=O)O)cc1` [Example 23, 2-Methyl-2-[4-{[(4-methyl-2-[3-fluoro-4-trifluoromethylphenyl]-thiazol-5-ylcarbonyl)amino]methyl}phenoxy]propionic Acid], the EC50 at human PPAR delta is 9190 nM; at human PPAR alpha it was 7 nM; at human PPAR gamma, ≥ 10000 nM.
The matching figures for `Cc1nc(-c2ccc(Br)cc2)sc1C(=O)NCc1ccc(OC(C)(C)C(=O)O)cc1` [Example 25, 2-Methyl-2-[4-{[(4-methyl-2-[4-bromophenyl]-thiazol-5-ylcarbonyl)amino]methyl}phenoxy]propionic Acid]: 2700 nM, 10 nM and ≥ 10000 nM.
As to `CCc1ccc(-c2nc(C)c(C(=O)NCc3ccc(OC(C)(C)C(=O)O)cc3)s2)cc1` [Example 27, 2-Methyl-2-[4-{[(4-methyl-2-[4-ethylphenyl]-thiazol-5-ylcarbonyl)amino]methyl}phenoxy]propionic Acid], the values for the EC50 at human PPAR delta, on human PPAR alpha and on human PPAR gamma were 4080 nM, 2 nM and 8820 nM, respectively.
Regarding `Cc1nc(-c2ccccc2)sc1C(=O)NCc1ccc(OC(C)(C)C(=O)O)cc1` [Example 29, 2-Methyl-2-[4-{[(4-methyl-2-phenylthiazol-5-ylcarbonyl)amino]methyl}phenoxy]propionic Acid], the results for the EC50 on human PPAR delta, at human PPAR alpha and on human PPAR gamma were ≥ 10000 nM, 122 nM and ≥ 10000 nM, respectively.
`Cc1nc(-c2ccc(Cl)cc2)sc1C(=O)NCc1ccc(OC(C)(C)C(=O)O)cc1` [Example 33, 2-Methyl-2-[4-{[(4-methyl-2-[4-chlorophenyl]-thiazol-5-ylcarbonyl)amino]methyl}phenoxy]propionic Acid]: the EC50 was 5350 nM on human PPAR delta, 14 nM at human PPAR alpha and ≥ 10000 nM on human PPAR gamma.
Regarding `Cc1nc(-c2ccc(OC(F)(F)F)cc2)sc1C(=O)NCc1ccc(OC(C)(C)C(=O)O)cc1` [Example 35, 2-Methyl-2-[4-{[(4-methyl-2-[4-trifluoromethoxyphenyl]-thiazol-5-ylcarbonyl)amino]methyl}phenoxy]propionic Acid], the EC50 at human PPAR delta is 4590 nM; on human PPAR alpha, 4 nM; on human PPAR gamma, ≥ 10000 nM.
As to `COc1ccc(-c2nc(C)c(C(=O)NCc3ccc(OC(C)(C)C(=O)O)cc3)s2)cc1` [Example 37, 2-Methyl-2-[4-{[(4-methyl-2-[4-methoxyphenyl]-thiazol-5-ylcarbonyl)amino]methyl}phenoxy]propionic Acid], the EC50 on human PPAR delta was ≥ 10000 nM; at human PPAR alpha it was 20 nM; on human PPAR gamma, ≥ 10000 nM.
For the compound `C#Cc1ccc(-c2nc(C)c(C(=O)NCc3ccc(OC(C)(C)C(=O)O)cc3)s2)cc1` [Example 39, 2-Methyl-2-[4-{[(4-methyl-2-[4-acetylenylphenyl]-thiazol-5-ylcarbonyl)amino]methyl}phenoxy]propionic Acid], the results for the EC50 on human PPAR delta, at human PPAR alpha and at human PPAR gamma were 2480 nM, 36 nM and ≥ 10000 nM, respectively.
